Patent US20140323506A1, “COMBINATION” (GlaxoSmithKline Intellectual Property Development Limited, priority 2010, published 2014)

What was measured:
Assay type in all cases: in vivo, CD-1 nude mice
[1] = test system: A375P F11s tumor xenografts; assay: A375P F11s tumor xenograft efficacy in nude mice
[2] = Body weight of nude mice bearing A375P F11s xenografts during treatment
Experimental: (§1) Female CD-1 nude mice of 6-8 weeks in age were used in these studies; all mice were obtained from Charles River Laboratories (Wilmington, Del.). Animals were housed in pathogen free conditions and handled with aseptic technique.
(§2) Mice with similar sized tumors (100-300 mm^3) were identified. The length and width of the tumors were measured by handheld calipers and body weights of the mice were measured using a bench top weighing scale. Tumor volumes were calculated based on the following formula: tumor volume=(Length×Width^2)/2. Mice were block randomized into the required number of dosing groups (n=8 mice/group). The randomization process ensured that the average tumor volume for each dosing group was approximately equal at the beginning of the study and mice with differing tumor volumes were evenly distributed. Mice were placed in groups of eight accordingly and dosed with either vehicle or compound for 36 days either once or twice daily, as summarised in the table below. Mice were weighed and tumors measured twice weekly for the duration of the study using Studylog animal study management software (Studylog Systems, Inc., South San Francisco, Calif., USA).

[3] = test system: A375P F11s tumor xenografts; assay: A375P F11s tumor xenograft efficacy in nude mice; remark: listed apart in the source
Experimental: as §1
The A375P F11s cell line, encoding a mutation for BRAF^V600E, was subcloned from the A375P human melanoma cell line (obtained from ATCC, Cat # CRL-1619).
The A375P F11s cell lines were grown in RPMI growth medium supplemented with 10% fetal bovine serum (FBS), 1% sodium pyruvate and 1% penicillin-streptomycin in a humidified 37° C. chamber with 5% CO2. Cells were expanded to obtain the large numbers of cells required for each injection; cells were grown in log phase, without reaching confluency and passaged regularly.
A375P F11s cells were harvested from culture flasks by exposure to 0.25% trypsin/EDTA for 5 min at 37° C. Detached cells were collected, centrifuged (1500 rpm, 5 min, 4° C.) and rinsed to remove the trypsin solution. Cells were re-suspended in PBS without magnesium or calcium and counted. Cells were spun as described previously to remove PBS and a single cell suspension was created in 50% Matrigel: 50% PBS (v:v) so that a 100 μL subcutaneous injection would deliver 1.75 million cells per mouse.
Compounds were administered in vehicles as described below.
as §2
Tumor volumes were calculated based on the following formula: tumor volume=(Length×Width^2)/2. Tumor growth curves were created from the mean±standard error of the mean, with n=8 animals per group. The percentage of tumor growth inhibition was calculated on the final day of dosing using the following formula: 1—(tumor volume in drug-treated population/tumor volume in vehicle-treated control population).

[4] = Group 3: Compound B 0.1 mg/kg PO QD, study day 3
[5] = Group 3: Compound B 0.1 mg/kg PO QD, study day 22
[6] = Group 6: Compound B 0.3 mg/kg PO QD, study day 0
[7] = Group 6: Compound B 0.3 mg/kg PO QD, study day 9
[8] = Group 6: Compound B 0.3 mg/kg PO QD, study day 15
[9] = Group 6: Compound B 0.3 mg/kg PO QD, study day 22
[10] = Group 3: Compound B 0.1 mg/kg PO QD, study day 0
[11] = Group 3: Compound B 0.1 mg/kg PO QD, study day 7
[12] = Group 3: Compound B 0.1 mg/kg PO QD, study day 9
[13] = Group 3: Compound B 0.1 mg/kg PO QD, study day 15
[14] = Group 3: Compound B 0.1 mg/kg PO QD, study day 18
[15] = Group 3: Compound B 0.1 mg/kg PO QD, study day 25
[16] = Group 3: Compound B 0.1 mg/kg PO QD, study day 28
[17] = Group 6: Compound B 0.3 mg/kg PO QD, study day 3
[18] = Group 6: Compound B 0.3 mg/kg PO QD, study day 7
[19] = Group 6: Compound B 0.3 mg/kg PO QD, study day 18
[20] = Group 6: Compound B 0.3 mg/kg PO QD, study day 25
[21] = Group 6: Compound B 0.3 mg/kg PO QD, study day 28
[22] = Group 6: Compound B 0.3 mg/kg PO QD, study day 31
[23] = Group 6: Compound B 0.3 mg/kg PO QD, study day 35
[24] = Group 6: Compound B 0.3 mg/kg PO QD, study day 37

## CC(=O)Nc1cccc(-n2c(=O)n(C3CC3)c(=O)c3c(Nc4ccc(I)cc4F)n(C)c(=O)c(C)c32)c1 [Compound B, N-{3-[3-cyclopropyl-5-(2-fluoro-4-iodo-phenylamino)-6,8-dimethy-2,4,7-trioxo-3,4,6,7-tetrahydro-2H-pyrido[4,3-d]pyrimidin-1-yl]phenyl}acetamide]
[1]; [4]
  Percent inhibition of tumor volume compared to vehicle treated mice: −4.1%
[1]; [5]
  Percent inhibition of tumor volume compared to vehicle treated mice: 2.1%
[1]; [6]
  Percent inhibition of tumor volume compared to vehicle treated mice: −15.41%
[1]; [7]
  Percent inhibition of tumor volume compared to vehicle treated mice: 68.1%
[1]; [8]
  Percent inhibition of tumor volume compared to vehicle treated mice: 82.0%
[1]; [9]
  Percent inhibition of tumor volume compared to vehicle treated mice: 76.8%
[2]; [10]
  Mean body weight: 26.30 g
[2]; [4]
  Mean body weight: 26.00 g
[2]; [11]
  Mean body weight: 26.24 g
[2]; [12]
  Mean body weight: 26.23 g
[2]; [13]
  Mean body weight: 26.09 g
[2]; [14]
  Mean body weight: 27.09 g
[2]; [5]
  Mean body weight: 26.73 g
[2]; [15]
  Mean body weight: 26.80 g
[2]; [16]
  Mean body weight: 26.93 g
[2]; [6]
  Mean body weight: 24.59 g
[2]; [17]
  Mean body weight: 24.10 g
[2]; [18]
  Mean body weight: 23.89 g
[2]; [7]
  Mean body weight: 23.93 g
[2]; [8]
  Mean body weight: 23.94 g
[2]; [19]
  Mean body weight: 24.41 g
[2]; [9]
  Mean body weight: 23.83 g
[2]; [20]
  Mean body weight: 23.95 g
[2]; [21]
  Mean body weight: 24.18 g
[2]; [22]
  Mean body weight: 24.49 g
[2]; [23]
  Mean body weight: 24.54 g
[2]; [24]
  Mean body weight: 24.64 g
[3]; Compound B 0.3 mg/kg QD
  smaller tumors compared to vehicle control: 70.4%
[3]; Compound B alone 0.3 mg/kg, treatment continued until day 37
  tumor volume course under extended treatment: tumor volume started to increase even under continued drug treatment
[3]; [10]
  Mean tumor volume: 199.3 mm^3
  Percent inhibition of tumor volume compared to vehicle treated mice: −15.70%
[3]; [4]
  Mean tumor volume: 260.5 mm^3
[3]; [11]
  Mean tumor volume: 300.8 mm^3
  Percent inhibition of tumor volume compared to vehicle treated mice: 3.1%
[3]; [12]
  Mean tumor volume: 335.1 mm^3
  Percent inhibition of tumor volume compared to vehicle treated mice: 14.2%
[3]; [13]
  Mean tumor volume: 459.3 mm^3
  Percent inhibition of tumor volume compared to vehicle treated mice: 28.2%
[3]; [14]
  Mean tumor volume: 616.2 mm^3
  Percent inhibition of tumor volume compared to vehicle treated mice: 15.3%
[3]; [5]
  Mean tumor volume: 916.9 mm^3
[3]; [15]
  Mean tumor volume: 1,100.3 mm^3
  Percent inhibition of tumor volume compared to vehicle treated mice: −1.0%
[3]; [16]
  Mean tumor volume: 1,338.4 mm^3
  Percent inhibition of tumor volume compared to vehicle treated mice: −6.8%
[3]; [6]
  Mean tumor volume: 198.8 mm^3
[3]; [17]
  Mean tumor volume: 205.9 mm^3
  Percent inhibition of tumor volume compared to vehicle treated mice: 17.7%
[3]; [18]
  Mean tumor volume: 141.2 mm^3
  Percent inhibition of tumor volume compared to vehicle treated mice: 54.5%
[3]; [7]
  Mean tumor volume: 124.4 mm^3
[3]; [8]
  Mean tumor volume: 115.1 mm^3
[3]; [19]
  Mean tumor volume: 141.4 mm^3
  Percent inhibition of tumor volume compared to vehicle treated mice: 80.5%
[3]; [9]
  Mean tumor volume: 217.3 mm^3
[3]; [20]
  Mean tumor volume: 300.3 mm^3
  Percent inhibition of tumor volume compared to vehicle treated mice: 72.4%
[3]; [21]
  Mean tumor volume: 370.6 mm^3
  Percent inhibition of tumor volume compared to vehicle treated mice: 70.4%
[3]; [22]
  Mean tumor volume: 450.5 mm^3
[3]; [23]
  Mean tumor volume: 529.1 mm^3
[3]; [24]
  Mean tumor volume: 604.4 mm^3

## Cc1ccc(Nc2nccc(N(C)c3ccc4c(C)n(C)nc4c3)n2)cc1S(N)(=O)=O [Compound A, 5-[[4-[(2,3-dimethyl-2H-indazol-6-yl)methylamino]-2-pyrimidinyl]amino]-2-methylbenzenesulfonamide, reference compound]
[2]; Group 2: Compound A 100 mg/kg PO BID, study day 0
  Mean body weight: 24.98 g
[2]; Group 2: Compound A 100 mg/kg PO BID, study day 3
  Mean body weight: 25.13 g
[2]; Group 2: Compound A 100 mg/kg PO BID, study day 7
  Mean body weight: 25.63 g
[2]; Group 2: Compound A 100 mg/kg PO BID, study day 9
  Mean body weight: 25.29 g
[2]; Group 2: Compound A 100 mg/kg PO BID, study day 15
  Mean body weight: 24.83 g
[2]; Group 2: Compound A 100 mg/kg PO BID, study day 18
  Mean body weight: 25.35 g
[2]; Group 2: Compound A 100 mg/kg PO BID, study day 22
  Mean body weight: 24.71 g
[2]; Group 2: Compound A 100 mg/kg PO BID, study day 25
  Mean body weight: 24.79 g
[2]; Group 2: Compound A 100 mg/kg PO BID, study day 28
  Mean body weight: 24.91 g
[2]; Group 2: Compound A 100 mg/kg PO BID, study day 31
  Mean body weight: 25.33 g
[2]; Group 2: Compound A 100 mg/kg PO BID, study day 35
  Mean body weight: 24.95 g
[2]; Group 2: Compound A 100 mg/kg PO BID, study day 37
  Mean body weight: 25.00 g
